Experimental data as given in ChEMBL document CHEMBL1201862, “PubChem BioAssay data set” (2004).
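How tested: cells in 96-well plates exposed to compound for 48 hours at five concentrations. At the GI50, growth is halved.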 Calls of active or inactive are those of the source. No stated cut-off is given here; in the data, active = GI50 up to about 1.1 µM and inactive = higher.

How the values were obtained:
Assay in all cases: growth of human tumour cells (NCI), 48 h
MDA-MB-231 = test system: MDA-MB-231
HOP-92 = test system: HOP-92
UACC-62 = test system: UACC-62
SNB-19 = test system: SNB-19
786-0 = test system: 786-0
Malme-3M = test system: Malme-3M
ACHN = test system: ACHN
HT-29 = test system: HT-29
MDA-N = test system: MDA-N
SN12C = test system: SN12C
TK-10 = test system: TK-10
NCI-H23 = test system: NCI-H23
UACC-257 = test system: UACC-257
NCI/ADR-RES = test system: NCI/ADR-RES
UO-31 = test system: UO-31
SNB-78 = test system: SNB-78
OVCAR-4 = test system: OVCAR-4
SF-295 = test system: SF-295
SNB-75 = test system: SNB-75
A549 = test system: A549

Row | Compound | GI50 (MDA-MB-231) | GI50 (HOP-92) | GI50 (UACC-62) | GI50 (SNB-19) | GI50 (786-0) | GI50 (Malme-3M) | GI50 (ACHN) | GI50 (HT-29) | GI50 (MDA-N) | GI50 (SN12C) | GI50 (TK-10) | GI50 (NCI-H23) | GI50 (UACC-257) | GI50 (NCI/ADR-RES) | GI50 (UO-31) | GI50 (SNB-78) | GI50 (OVCAR-4) | GI50 (SF-295) | GI50 (SNB-75) | GI50 (A549)
1 | COc1ccc2nc(C)cc(NCCCCCCCCCNc3cc(C)nc4ccc(OC)cc34)c2c1 | 1.27 µM (inactive) | 1.24 µM (inactive) | 2.83 µM (inactive) | 2.67 µM (inactive) | 1.03 µM (active) | 9.27 µM (inactive) | 8.87 µM (inactive) | 0.55 µM (active) | 1.46 µM (inactive) | 3.6 µM (inactive) | 4.66 µM (inactive) | 1.73 µM (inactive) | 13.7 µM (inactive) | 5.43 µM (inactive) | 13.6 µM (inactive) | 1.8 µM (inactive) | 2.19 µM (inactive) | 1.11 µM (active) | 4.14 µM (inactive) | 1.5 µM (inactive)
2 | CCCCNC(=O)C1C2CCC(O2)C1C(=O)O (stereo unspecified) |  | 12 µM (inactive) | 17.5 µM (inactive) | 23.7 µM (inactive) | 16.1 µM (inactive) | 21.5 µM (inactive) | 22.6 µM (inactive) | 23.1 µM (inactive) |  | 14 µM (inactive) | 18.1 µM (inactive) | 29.4 µM (inactive) | 22.8 µM (inactive) |  | 64.6 µM (inactive) | 32.9 µM (inactive) | 29.6 µM (inactive) | 23.1 µM (inactive) | 16.8 µM (inactive) | 31 µM (inactive)
3 | COc1ccc(C(=O)C(c2ccc(OC)cc2)C2C(=O)Oc3ccccc32)cc1 (stereo unspecified) |  | > 10 µM (inactive) | > 10 µM (inactive) | > 10 µM (inactive) | > 10 µM (inactive) | > 10 µM (inactive) | > 10 µM (inactive) | > 10 µM (inactive) |  | > 10 µM (inactive) | > 10 µM (inactive) | > 10 µM (inactive) | > 10 µM (inactive) |  | 22.5 µM (inactive) | 67.9 µM (inactive) | 5.98 µM (inactive) | > 10 µM (inactive) | > 10 µM (inactive) | > 10 µM (inactive)
4 | OC1C2C=CCC1CCC2 (stereo unspecified) |  | > 100 µM (inactive) | > 100 µM (inactive) | > 100 µM (inactive) | > 100 µM (inactive) | > 100 µM (inactive) | > 100 µM (inactive) | > 100 µM (inactive) |  | > 100 µM (inactive) | > 100 µM (inactive) | > 100 µM (inactive) | > 100 µM (inactive) |  | > 100 µM (inactive) | > 100 µM (inactive) | > 100 µM (inactive) | > 100 µM (inactive) | > 100 µM (inactive) | > 100 µM (inactive)
5 | O=C(Cc1ccccc1)Oc1ccc2c(-c3ccccc3)c(C(=O)Nc3ccc(Cl)cc3)c(=O)oc2c1 |  | > 100 µM (inactive) | > 100 µM (inactive) | > 100 µM (inactive) | > 100 µM (inactive) | > 100 µM (inactive) | > 100 µM (inactive) | > 100 µM (inactive) |  | > 100 µM (inactive) | > 100 µM (inactive) | > 100 µM (inactive) | > 100 µM (inactive) |  | > 100 µM (inactive) | > 100 µM (inactive) | > 100 µM (inactive) | > 100 µM (inactive) | > 100 µM (inactive) | > 100 µM (inactive)
6 | Cc1ccccc1Nc1nc2c(s1)C(=O)c1ccccc1C2=O | 3.41 µM (inactive) | 11.9 µM (inactive) | 4.55 µM (inactive) | 7.21 µM (inactive) | 2.95 µM (inactive) | 15 µM (inactive) | 4.95 µM (inactive) | 19.1 µM (inactive) | 1.95 µM (inactive) | 3.3 µM (inactive) | 22.7 µM (inactive) | 3.43 µM (inactive) | 5.5 µM (inactive) |  | 5.07 µM (inactive) | 12.8 µM (inactive) | 2.02 µM (inactive) | 18 µM (inactive) | 15.3 µM (inactive) | 10.2 µM (inactive)
7 | O=C(O)CCSCCCN1C(=O)c2ccccc2C1=O |  | > 100 µM (inactive) | > 100 µM (inactive) | > 100 µM (inactive) | > 100 µM (inactive) | > 100 µM (inactive) | > 100 µM (inactive) | > 100 µM (inactive) |  | > 100 µM (inactive) | > 100 µM (inactive) | > 100 µM (inactive) | > 100 µM (inactive) |  | > 100 µM (inactive) | > 100 µM (inactive) | > 100 µM (inactive) | > 100 µM (inactive) | > 100 µM (inactive) | > 100 µM (inactive)
8 | COC(=O)C1=C(O)C(O)=C(C(=O)OC)C1 |  | > 100 µM (inactive) | 0.612 µM (active) | > 100 µM (inactive) | > 100 µM (inactive) | > 100 µM (inactive) | > 100 µM (inactive) | > 100 µM (inactive) |  | > 100 µM (inactive) | > 100 µM (inactive) | > 100 µM (inactive) | > 100 µM (inactive) |  | > 100 µM (inactive) | > 100 µM (inactive) | > 100 µM (inactive) | > 100 µM (inactive) | > 100 µM (inactive) | > 100 µM (inactive)
9 | Cc1cc2nc3ccc(N(C)C)cc3[s+]c2cc1N [TOLONIUM CHLORIDE] | 2.41 µM (inactive) | 13.4 µM (inactive) | 1.89 µM (inactive) | 2.69 µM (inactive) | 5.22 µM (inactive) | 1.93 µM (inactive) | 8.71 µM (inactive) | 7.93 µM (inactive) | 1.09 µM (active) | 3.1 µM (inactive) | 19.2 µM (inactive) | 2.21 µM (inactive) | 1.37 µM (inactive) | 2.26 µM (inactive) | 11 µM (inactive) | 12.6 µM (inactive) | 3.35 µM (inactive) | 3.62 µM (inactive) | 11 µM (inactive) | 3.22 µM (inactive)
